Measurements: patent US12728168B2, “Anti-CEA antibody-exatecan analog conjugate and pharmaceutical use thereof” (JIANGSU HENGRUI MEDICINE CO., LTD., priority 2019, dated 2026)

How the values were obtained:
human soluble CEA = biological target: T1, human soluble CEA (Homo sapiens, UniProt P06731); test: Affinity of antibodies for soluble CEA using Biacore; format: binding; settings: 1:1 Langmuir
T1 construct: His6 (C); made in house; host or cells: 293E cells
T1 sequence (P06731 with tags, fused parts or gaps): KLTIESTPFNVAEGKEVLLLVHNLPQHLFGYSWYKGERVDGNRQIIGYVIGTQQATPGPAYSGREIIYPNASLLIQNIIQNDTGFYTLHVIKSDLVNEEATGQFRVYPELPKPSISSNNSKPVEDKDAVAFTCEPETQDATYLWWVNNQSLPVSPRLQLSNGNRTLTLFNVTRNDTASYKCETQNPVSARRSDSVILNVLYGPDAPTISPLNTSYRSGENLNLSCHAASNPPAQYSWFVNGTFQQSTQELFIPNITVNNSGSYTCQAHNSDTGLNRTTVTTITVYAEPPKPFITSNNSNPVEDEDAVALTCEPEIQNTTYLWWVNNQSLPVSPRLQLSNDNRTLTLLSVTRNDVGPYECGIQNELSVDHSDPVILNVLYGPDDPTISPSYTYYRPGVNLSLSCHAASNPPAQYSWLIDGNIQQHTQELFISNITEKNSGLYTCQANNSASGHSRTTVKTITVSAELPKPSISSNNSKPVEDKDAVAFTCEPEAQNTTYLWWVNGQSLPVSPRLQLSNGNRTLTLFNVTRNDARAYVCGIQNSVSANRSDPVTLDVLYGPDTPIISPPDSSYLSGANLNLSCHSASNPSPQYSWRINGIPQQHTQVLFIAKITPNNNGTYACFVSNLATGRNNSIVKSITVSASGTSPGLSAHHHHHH
Method: The affinity of a test humanized antibody for human and monkey soluble CEA was determined using a Biacore (GE, T200) instrument. According to the method in the instructions of a human antibody capture kit (GE, Cat #BR-1008-39), the human antibody capture antibody was covalently conjugated to a biosensor chip CM5 (GE, Cat #BR-1005-30) of the Biacore instrument to affinity-capture a certain amount of the test antibody, then a series of concentration gradients of soluble CEA antigens were allow to flow through the surface of the chip, and reaction signals were detected in real time using Biacore, so that an association and dissociation curve was obtained. After each cycle of dissociation was completed, the biochip was washed and regenerated with a regeneration solution prepared in the human antibody capture kit. The data obtained from the experiment were fitted with the (1:1) Langmuir model using BIAevaluation version 4.1 software to obtain affinity values.

[1] = biological target: T2, human CEACAM1 expressed on CHO cell surface (CEACAM1-CHO) (Homo sapiens, UniProt P13688); test: FACS binding assay, CEACAM1-CHO cells; settings: Table 17, humanized antibodies and controls
T2 construct: expressed in transfected cells; host or cells: CHO cells
T2 sequence (P13688 35-526): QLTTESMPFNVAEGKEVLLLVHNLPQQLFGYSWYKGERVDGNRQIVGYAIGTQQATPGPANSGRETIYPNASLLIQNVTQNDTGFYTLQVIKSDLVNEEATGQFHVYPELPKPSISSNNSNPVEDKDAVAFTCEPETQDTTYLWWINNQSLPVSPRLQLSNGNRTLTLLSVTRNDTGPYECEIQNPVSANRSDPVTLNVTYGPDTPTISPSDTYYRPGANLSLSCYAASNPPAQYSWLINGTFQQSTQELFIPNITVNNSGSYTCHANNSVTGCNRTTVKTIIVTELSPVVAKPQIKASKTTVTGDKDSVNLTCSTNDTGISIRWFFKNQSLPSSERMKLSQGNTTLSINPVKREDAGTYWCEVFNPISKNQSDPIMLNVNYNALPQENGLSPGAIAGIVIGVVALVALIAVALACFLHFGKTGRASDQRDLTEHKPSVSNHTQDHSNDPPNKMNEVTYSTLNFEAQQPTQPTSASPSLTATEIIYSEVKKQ
Method: (§1) In order to detect the binding of the antibody to the CEA protein on the cell surface, the binding activity of the antibody was determined by FACS using cells expressing CEA on the cell surface. Cells were harvested and centrifuged at 400 g at 4° C. for 5 min. Pre-cooled PBS containing FBS at final concentration 10% was added, and the mixture was centrifuged at 400 g at 4° C. for 5 min; the procedures were repeated twice. The cells were seeded into a 96-well plate at 10^5 cells/well, and 100 μL of gradient diluted antibody solution was added to each well. The plate was incubated at 4° C. for 60 min and centrifuged, and the supernatant was removed. 250 μL of pre-cooled PBS containing FBS at final concentration 10% was added to each well to resuspend the cells, and the suspension was centrifuged at 400 g at 4° C. for 5 min, followed by the removal of the supernatant; the procedures were repeated twice. 50 μL of 1:200 diluted secondary antibody Alexa Fluor@488 goat anti-human IgG (H+L) (Lifetechologies, Cat #A11013) was added. The plate was incubated in the dark at 4° C. for 45 min and centrifuged, and the supernatant was removed. 250 μL of pre-cooled PBS containing FBS at final concentration 10% was added to each cell to resuspend the cells, and the suspension was centrifuged at 400 g at 4° C. for 5 min; the procedures were repeated twice. 100 μL of pre-cooled PBS was added to each well to resuspend the cells. The plate was analyzed by a flow cytometer (BD, FACSverse) for fluorescence signal values. Higher values indicate higher binding activity of the antibody to the protein on the cell surface. Binding curves were plotted using PRISM analysis software based on the assay results, and the EC50 values for the binding activity of the antibody to the cell surface proteins human CEA (MKN45 human gastric cancer cells, Nanjing Kebai Biotechnology Co., Ltd., Cat #CBP60488), cynoCEA-CHO and CEACAM1-CHO were obtained by fitting.

[2] = system: monkey CEA expressed on CHO cell surface (cynoCEA-CHO); test: FACS binding assay, cynoCEA-CHO cells; design: species or system cynomolgus monkey; settings: Table 17, humanized antibodies and controls
Method: as §1, with “The cells were seeded into a 96-well plate at 10^5 cells/well, and 100 μL of gradient diluted antibody solution was added to each well.” left out, “values.” for “values. Higher values indicate higher binding activity of the antibody to the protein on the cell surface. Binding curves were plotted using PRISM analysis software based on the assay results, and the EC50 values for the binding activity of the antibody to the cell surface proteins human CEA (MKN45 human gastric cancer cells, Nanjing Kebai Biotechnology Co., Ltd., Cat #CBP60488), cynoCEA-CHO and CEACAM1-CHO were obtained by fitting.”

[3] = system: MKN45 (with high CEA expression); test: Cytotoxicity of ADCs, Cell Titer-Glo, MKN45; format: cell-based, human; settings: for IC50: 5 days
Method: (§2) Following conjugation of humanized CEA antibodies to toxin 2-A, cytotoxicity of each ADC to cancer cell lines with different CEA expression levels was evaluated. The CEA-highly expressing cells MKN45, the CEA-moderately expressing cells LS174T and the CEA-expressing negative cells HCT116 were plated in 96-well plates; gradient-diluted ADC samples were added to the cells the next day, and the cells were cultured at 37° C. for 5 days. 50 μL of Cell Titer-Glo reagent (Promega, Cat #G9242) was added to each well, and after incubation for 10 min in the dark, the luminescence signals were detected by a cell imaging detector (BioTek, Cytation5). An inhibition curve was plotted with the detection results using PRISM analysis software, and fitted to obtain an IC50 value of the inhibitory activity of the ADC against cell proliferation.

HCT116 cultured alone = test: Bystander effect test, HCT116 cultured alone; format: cell-based; settings: ADC 4 nM, 5 days, FIG. 2
Method: (§3) In order to evaluate the bystander effect and cytotoxicity of the ADC, the CEA-highly expressing cell line MKN45 and the CEA-expressing negative cell line HCT116 were cultured in a 6-well cell culture plate for 24 h, and then an ADC sample was added at a final concentration of 4 nM. The cells were cultured in a cell incubator at 37° C. for another 5 days.
(§4) The cells were digested with pancreatin and collected, and CEA Monoclonal Antibody FITC (ThermoFisher, Cat #MA1-80578) was added at a final concentration of 10 μg/mL. The cells were incubated on ice in the dark for 1 h, washed twice with PBS, and counted using a flow cytometer.

[4] = system: MKN45 xenograft tumor model; test: In vivo inhibitory activity against tumors, MKN45 xenograft; design: species or system BALB/c nude mice
Method: (§5) The in vivo efficacy of the ADC molecules was evaluated using LS174T and MKN45 xenograft tumor models. BALB/c nude mice (SPF grade, Shanghai Slac Laboratory Animal Co., Ltd., certificate no.: 201833814, license no.: SCXK (Jiangsu) 2016-0010) were housed in a 12/12 hour light/dark cycle at a temperature of 23±1° C. with humidity at 40-50%, with food (standard sterilized feed for mice) and water ad libitum. The mice were acclimatized for 10 days in a laboratory environment before the start of the experiment and then inoculated subcutaneously on the right flank with LS174T cells (5×10^5 cells/mouse) or MKN45 cells (4×10^6 cells/mouse). Tumors were allowed to grow to a size of about 150 mm^3, and then the mice were randomized into groups of 8. After grouping, the mice in the experimental groups were intraperitoneally injected with ADC samples in a dose of 1 mg/kg or 3 mg/kg, and those in the blank control group were intraperitoneally injected with PBS, only once. The sizes of the tumors on the mice were observed, measured and recorded.

[5] = system: LS174T xenograft tumor model; test: In vivo inhibitory activity against tumors, LS174T xenograft; design: species or system BALB/c nude mice
Method: as §5

[6] = system: LS174T (with moderate CEA expression); test: Cytotoxicity of ADCs, Cell Titer-Glo, LS174T; format: cell-based; settings: for IC50: 5 days
Method: as §2

[7] = system: HCT116 (without CEA expression); test: Cytotoxicity of ADCs, Cell Titer-Glo, HCT116; format: cell-based; settings: for IC50: 5 days
Method: as §2

[8] = system: MKN45 and HCT116 co-cultured; test: Bystander effect and cytotoxicity, MKN45 and HCT116 co-cultured; format: cell-based; settings: ADC 4 nM, 5 days, FIG. 2
Method: as §3, §4

[9] = ADC batches of high DAR (6.29-7)
[10] = ADC batches of low DAR (3.97-4.8)

Chain of monkey CEA expressed on CHO cell surface (cynoCEA-CHO) (as listed by the source): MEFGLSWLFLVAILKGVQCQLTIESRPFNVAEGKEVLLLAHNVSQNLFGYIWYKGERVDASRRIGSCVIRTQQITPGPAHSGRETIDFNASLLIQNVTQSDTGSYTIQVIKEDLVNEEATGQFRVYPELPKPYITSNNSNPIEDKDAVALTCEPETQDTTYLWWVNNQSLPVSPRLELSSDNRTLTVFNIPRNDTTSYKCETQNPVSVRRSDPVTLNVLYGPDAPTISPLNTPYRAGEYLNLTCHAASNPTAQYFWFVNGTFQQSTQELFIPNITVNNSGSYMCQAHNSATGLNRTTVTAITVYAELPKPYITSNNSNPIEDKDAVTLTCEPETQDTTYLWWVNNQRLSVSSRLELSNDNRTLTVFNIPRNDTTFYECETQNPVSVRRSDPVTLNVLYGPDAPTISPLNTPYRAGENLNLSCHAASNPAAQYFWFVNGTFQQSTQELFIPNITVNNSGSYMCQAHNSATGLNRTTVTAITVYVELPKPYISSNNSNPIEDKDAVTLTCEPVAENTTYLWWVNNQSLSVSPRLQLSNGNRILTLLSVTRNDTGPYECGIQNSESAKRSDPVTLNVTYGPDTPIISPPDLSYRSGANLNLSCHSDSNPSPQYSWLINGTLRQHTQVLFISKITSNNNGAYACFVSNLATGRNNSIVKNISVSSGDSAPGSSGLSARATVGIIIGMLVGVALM

Question: Which “ka” value (human soluble CEA) does the source give for Lmab [reference compound] here?
Answer: The value was 55800 M⁻¹ s⁻¹.

Question: And the “kd” value (human soluble CEA)?
Answer: Its value is 0.000331 s⁻¹.

Question: What about the “EC50 (nM) CEACAM1-CHO” value [1] of the same substance?
Answer: The value was “No binding”.

Question: What about the “EC50 (nM) cynoCEA-CHO” value [2] of the same substance?
Answer: Its value is “No binding”.

Question: How did the IC50 [3, 9] turn out when “Lmab-CL2A-SN38: control ADC: toxin CL2A-SN38 conjugated to Lmab (labetuzumab)” was run?
Answer: The IC50 was 0.665 nM.

Question: And the IC50 [3, 10]?
Answer: Its IC50 is 1.59 nM.

Question: What about the “IC50 ratio HCT116/MKN45” value [3, 9] of the same substance?
Answer: Its value is 0.64.

Question: And the “IC50 ratio HCT116/MKN45” value [3, 10]?
Answer: The value was 0.66.

Question: And the “toxicity to HCT116 cultured alone” value (HCT116 cultured alone)?
Answer: Its value is “very toxic”.

Question: And the “Tumor inhibition rate (%)” value ([4]; 3 mpk, intraperitoneal, only once, 3 mg/kg)?
Answer: Its value is 13.51%.

Question: And the “effect on tumor volume” value ([4]; FIG. 5, ranking among the 3-mpk groups)?
Answer: The value was “the worst inhibitory effect on tumors”.

Question: What about the “effect on tumor weight” value ([4]; FIG. 6, last day, ranking among the 3-mpk groups) of the same substance?
Answer: The value was “the worst inhibitory effect on tumors”.

Question: What about the “Tumor inhibition rate (%)” value ([5]; 3 mpk, intraperitoneal, only once) of the same substance?
Answer: The value was 33.44%.

Question: What about the “effect on tumor volume” value ([5]; FIG. 3, ranking among the 3-mpk groups) of the same substance?
Answer: Its value is “the worst inhibitory effect on tumors”.

Question: What about the “effect on tumor weight” value ([5]; FIG. 4, last day, ranking among the 3-mpk groups) of the same substance?
Answer: The value was “the worst inhibitory effect on tumors”.

Question: What about the IC50 [6, 9] of the same substance?
Answer: The IC50 was 0.346 nM.

Question: And the IC50 [6, 10]?
Answer: Its IC50 is 0.662 nM.

Question: And the “IC50 ratio HCT116/LS174T” value [6, 9]?
Answer: Its value is 1.24.

Question: What about the “IC50 ratio HCT116/LS174T” value [6, 10] of the same substance?
Answer: Its value is 1.60.

Question: What about the IC50 [7, 9] of the same substance?
Answer: The IC50 was 0.428 nM.

Question: What about the IC50 [7, 10] of the same substance?
Answer: The IC50 was 1.06 nM.

Question: What about the “dependence of cytotoxicity on CEA expression level” value ([7]; MKN45, LS174T and HCT116 compared) of the same substance?
Answer: Its value is “non-specific cytotoxicity”.

Question: And the “bystander effect and cytotoxicity” value [8]?
Answer: Its value is “very toxic”.
